# Measured values reported in patent US20230301883A1, “MOISTURIZING ANTIBACTERIAL COMPOSITION” (priority 2020, published 2023).
# What was measured:
# cells = experiment: Wound healing (scratch closure) assay; format: cell-based; conditions: 24 hours after scratch
# Description: In this example, various combinations of benefit agents were tested for resilience wound healing and barrier repair. For wound healing assessments, cells were grown to 80% confluency and treated with bioactives for 24 to 36 hours. Post treatment, a scratch was created on the cell and closure of the wound was monitored after 24 hours of incubation. Closure of the scratch area was calculated as a % closure of the wound. Microscopic images were captured at a magnification of 4× and the open wound area measurements were analyzed using the software CellSens. Wound closure in percentage=(mean of the readings of the open wound area at (t=24)−mean of the readings of the open wound area at (t=0)/mean of the readings at (t=0))*100.
# melanin content of cells = experiment: Melanin content assay; format: cell-based; conditions: for % Inhibition in Melanin Content: 72 hours incubation
# Description: In this Example, cells were grown for 24 hours and treated with bioactives and incubated for 72 hours. Post treatment, the cells were lysed and absorbance measured at 405 nm. The lysate was transferred to a fresh 384-well clear flat bottom plate and an […] was measured at 405 nm using a FlexStation 3 reader. (% reduction in melanin content was measured by taking the mean absorbance value of the control−the mean absorbance value of the treated cells/the mean absorbance value of the control)*100
# [1] = Solubility of sensory oil in 75/25 EtOH/Water blend; format: physicochemical
# Excerpt: (§1) A sensory oil can be used in the antibacterial composition to assist in leaving the user with a non-tacky feeling to the skin after application of the composition. The antibacterial composition comprises a sensory oil in an amount of 0.01 to 10% by weight, preferably 0.5 to 5% by weight including all values and ranges subsumed therein. The sensory oil can comprise a soluble sensory oil. Sensory oils desirable for use in the antibacterial composition disclosed herein must meet the following criteria: the sensory oil must be liquid, the sensory oil must be soluble in at least a 75/25 or higher ratio of EtOH/Water which is to be reflective of solubility in the final composition to give a clear final antibacterial composition, and the sensory oil must have no solvency for water.
# (§2) The examples are not meant to limit the materials that can be used but merely to illustrate oil type and level selected based on three criteria. […] Finally, the preferred oil must itself not have solvency for water such that during application and on drying as the ethanol and water evaporate, the water is also allowed to quickly evaporate leaving behind only the oil and any skin benefit actives/moisturizers if present.
# [2] = Water solubility in sensory oil (solvency of the oil for water); format: physicochemical; conditions: yes/no
# Excerpt: as §1, §2
compound,measurement,setting,value
Sodium Hyaluronate,% Closure in Scratch Area,cells; 0.001%,51%
same,% Inhibition in Melanin Content,melanin content of cells; 0.001%,9.09%
"CCCCCCc1ccc(O)cc1O [4-Hexyl resorcinol, reference compound]",inhibition at 10 µM,"melanin content of cells; 10 micromolar, read-out: % inhibition in melanin content (benchmark)",~33%
CCCCC(CC)COC(=O)CC(O)C(=O)OCC(CC)CCCC (centres unmarked) [Diethyl hexyl malate],Solubility in 75/25 EtOH/Water,[1],>30%
same,Water solubility in sensory oil,[2],No
PPG-2 Isoceteth-20 Acetate,Solubility in 75/25 EtOH/Water,[1],>30%
same,Water solubility in sensory oil,[2],no
CCCCCCCCCCCCOC(=O)C(C)O (centres unmarked) [Lauryl lactate],Solubility in 75/25 EtOH/Water,[1],>30%
same,Water solubility in sensory oil,[2],No
Dicapryl maleate,Solubility in 75/25 EtOH/Water,[1],<10%
same,Water solubility in sensory oil,[2],No
"NC(=O)c1cccnc1 [Vitamin B3, niacinamide]",% Closure in Scratch Area,cells; 0.2%,30%
same,% Inhibition in Melanin Content,melanin content of cells; 0.2%,7.47%
CCCCC(CC)COC(=O)CCCCCCCCC(=O)OCC(CC)CCCC (centres unmarked) [Diethyl hexyl sebacate],Solubility in 75/25 EtOH/Water,[1],<10%
same,Water solubility in sensory oil,[2],No
Isocetyl alcohol,Solubility in 75/25 EtOH/Water,[1],<10%
same,Water solubility in sensory oil,[2],No
tocopherol [Vitamin E],% Closure in Scratch Area,cells; 0.001%,32%
same,% Closure in Scratch Area,cells; 0.05%,48%
same,% Inhibition in Melanin Content,melanin content of cells; 0.001%,3.56%
same,% Inhibition in Melanin Content,melanin content of cells; 0.05%,15.62%
CCCCC(CC)COC(=O)CCCCC(=O)OCC(CC)CCCC (centres unmarked) [Diethylhexyl adipate],Solubility in 75/25 EtOH/Water,[1],<10%
same,Water solubility in sensory oil,[2],No
CC(C)OC(=O)CCCCC(=O)OC(C)C [Disopropyl adipate],Solubility in 75/25 EtOH/Water,[1],>30%
same,Water solubility in sensory oil,[2],No
Glyceryl Monoleate,Solubility in 75/25 EtOH/Water,[1],>30%
same,Water solubility in sensory oil,[2],yes
PPG-2-Isoceteth-2,Solubility in 75/25 EtOH/Water,[1],>30%
same,Water solubility in sensory oil,[2],Yes
